Source: ChEMBL document CHEMBL5316373, “Discovery of novel bicyclic[3.3.0]proline peptidyl α-ketoamides as potent 3CL-protease inhibitors for SARS-CoV-2” (Bioorg Med Chem Lett, 2023)

Legend:
[1] = biological target: Replicase polyprotein 1ab (Severe acute respiratory syndrome coronavirus 2, UniProt P0DTD1); test: Inhibition of SARS CoV-2 main protease preincubated for 30 min followed by substrate addition and measured after 60 mins by fluorescence assay
Human coronavirus OC43 [2] = test: microbe, parasite or virus in culture; conditions: Betacoronavirus 1, MRC5, 120 h
[3] = Clearance in rat at 2 mg/kg, iv; type: ADME, organism-based; conditions: in vivo
Human coronavirus OC43 [4] = test: In vivo antiviral activity against HCoV-OC43 infected in mouse assessed as organism survival rate at 50 mg/kg,ip for 7 days; type: functional; conditions: time 7 day
[5] = AUC in rat at 10 mg/kg, po; type: ADME, organism-based; set-up: dose 10 mg/kg, route po; conditions: in vivo
[6] = Cmax in rat at 10 mg/kg, po; type: ADME, organism-based; set-up: route po; conditions: in vivo
[7] = Cmax in mouse at 10 mg/kg, po; type: ADME, organism-based; set-up: route po; conditions: in vivo
[8] = Oral bioavailability in rat at 10 mg/kg; type: ADME, organism-based; conditions: in vivo
[9] = Clearance in mouse at 3 mg/kg, iv; type: ADME, organism-based; conditions: in vivo
[10] = Stability of compound in rat plasma assessed as compound remaining and measured after 2 hrs; type: ADME, cell-free
[11] = Volume of distribution at steady state in rat at 2 mg/kg, iv; type: ADME, organism-based; conditions: in vivo, read-out: Vdss
[12] = Half life in mouse 3 mg/kg, iv; type: ADME, organism-based; conditions: in vivo
[13] = Volume of distribution at steady state in mouse at 3 mg/kg, iv; type: ADME, organism-based; conditions: in vivo, read-out: Vdss
[14] = Stability of compound in mouse plasma assessed as compound remaining and measured after 2 hrs; type: ADME, cell-free
[15] = Oral bioavailability in mouse at 10 mg/kg; type: ADME, organism-based; conditions: in vivo
[16] = Half life in rat 2 mg/kg, iv; type: ADME, organism-based; conditions: in vivo
[17] = AUC in mouse at 10 mg/kg, po; type: ADME, organism-based; set-up: route po; conditions: in vivo
Human coronavirus OC43 [18] = test: In vivo antiviral activity against HCoV-OC43 infected in mouse assessed as organism survival rate at 12.5 mg/kg,ip for 7 days; type: functional; conditions: time 7 day
[19] = Toxicity in mouse infected with HCoV-OC43 assessed as body weight change at 12.5 to 50 mg/kg, ip for 7 days; type: organism-based; conditions: in vivo, 168 h, dose 12.5-50 mg/kg, time 7 day
SARS-CoV-2 = test: microbe, parasite or virus in culture; conditions: Severe acute respiratory syndrome coronavirus 2, Vero, 24 h
Human coronavirus OC43 [20] = test: In vivo antiviral activity against HCoV-OC43 infected in mouse assessed as organism survival rate at 25 mg/kg,ip for 7 days; type: functional; conditions: time 7 day
Human coronavirus OC43 [21] = test: In vivo antiviral activity against HCoV-OC43 infected in mouse assessed as organism survival rate at 12.5 to 50 mg/kg,ip for 7 days; type: functional, organism-based; conditions: dose 12.5-50 mg/kg, time 7.0 day
[22] = Stability of compound in human plasma assessed as compound remaining and measured after 2 hrs; type: ADME, cell-free

Row | SMILES | IC50 [1] [µM] | EC50 (Human coronavirus OC43 [2]) [µM] | clearance [3] [mL/min/kg] | AUC [5] [µM·h] | Cmax [6] [nM] | Cmax [7] [nM] | bioavailability [8] [%] | clearance [9] [mL/min/kg] | Stability [10] [%] | Vd [11] [L/kg] | half-life [12] [min] | Vd [13] [L/kg] | Stability [14] [%] | bioavailability [15] [%] | half-life [16] [min] | AUC [17] [µM·h] | EC50 (SARS-CoV-2) [µM] | Stability [22] [%] | other results
1 | N#C[C@H](Cc1n[nH]c2ccccc12)NC(=O)[C@@H]1[C@H]2CCC[C@H]2CN1C(=O)[C@@H](NC(=O)C(F)(F)F)C1CCCCC1 | > 1 | 4.89 |  |  |  |  |  |  |  |  |  |  |  |  |  |  |  |  | 
2 | CC(C)(C)NC(=O)C(=O)[C@H](C[C@@H]1CCNC1=O)NC(=O)[C@@H]1[C@H]2CCC[C@H]2CN1C(=O)[C@@H](NC(=O)C(F)(F)F)C1CC2(CCC2)C1 | 0.077 | 0.444 |  |  |  |  |  |  |  |  |  |  |  |  |  |  |  |  | 
3 | N#C[C@H](C[C@@H]1CCNC1=O)NC(=O)[C@@H]1[C@H]2CCC[C@H]2CN1C(=O)[C@@H](NC(=O)C(F)(F)F)c1ccc(F)cc1 | 0.165 | 0.677 |  |  |  |  |  |  |  |  |  |  |  |  |  |  |  |  | 
4 | CC(C)(C)[C@H](NC(=O)C(F)(F)F)C(=O)N1C[C@@H]2C[C@@H]2[C@H]1C(=O)N[C@H](C#N)C[C@@H]1CCNC1=O | 0.356 | 5.81 |  |  |  |  |  |  |  |  |  |  |  |  |  |  |  |  | 
5 | CC(C)(C)[C@H](NC(=O)C(F)(F)F)C(=O)N1C[C@H]2[C@@H]([C@H]1C(=O)N[C@H](C#N)C[C@@H]1CCNC1=O)C2(C)C |  |  | 42 | 2.38 | 2140 | 2720 | 29.9 | 30.2 | 84 | 1.24 | 42.8 | 0.456 | 91 | 32.7 | 46.2 | 3.58 |  |  | Activity (Human coronavirus OC43 [4]): 100%
6 | CC(C)(C)NC(=O)C(=O)[C@H](C[C@@H]1CCNC1=O)NC(=O)[C@@H]1[C@H]2CCC[C@H]2CN1C(=O)[C@@H](NC(=O)C(F)(F)F)C1CCCCC1 | 0.034 | 0.146 | 2.55 | 37.4 | 3790 | 4810 | 37.4 |  | 96 | 0.929 |  |  | 106 | 32 | 262 | 33 | 0.053 | 102 | Activity (Human coronavirus OC43 [18]): 66.6%; Activity [19]: Toxic; Activity (Human coronavirus OC43 [4]): 100%; Activity (Human coronavirus OC43 [20]): 83.3%; Activity (Human coronavirus OC43 [21]): Dose-Dependent Effect
7 | N#C[C@H](C[C@@H]1CCNC1=O)NC(=O)[C@@H]1[C@H]2CCC[C@H]2CN1C(=O)[C@@H](NC(=O)C(F)(F)F)C1CCCCC1 | 0.047 | 0.112 | 62.7 | 2.92 | 3470 | 1160 | 57.6 | 92.2 |  | 1.34 | 11.3 | 1.01 | 100 | 14.2 | 22.7 | 0.478 | 0.043 | 108 | 
8 | CC(=O)N[C@H](C(=O)N1C[C@@H]2CCC[C@@H]2[C@H]1C(=O)N[C@H](C#N)C[C@@H]1CCNC1=O)C1CCCCC1 | 0.551 | 2.78 |  |  |  |  |  |  |  |  |  |  |  |  |  |  |  |  | 
9 | CC(C)(C)[C@H](NC(=O)C(F)(F)F)C(=O)N1C[C@@H]2CCC[C@@H]2[C@H]1C(=O)N[C@H](C#N)C[C@@H]1CCNC1=O | 0.043 | 0.136 | 75.4 | 2.31 | 2980 | 790 | 52 | 79.3 | 100 | 1.25 | 6.66 | 0.64 | 102 | 13.3 | 14.3 | 0.553 | 0.064 | 106 | 
10 | CC(C)(C)NC(=O)C(=O)[C@H](C[C@@H]1CCNC1=O)NC(=O)[C@@H]1[C@H]2CCC[C@H]2CN1C(=O)[C@@H](NC(=O)C(F)(F)F)C1CCCC1 |  | 0.421 |  |  |  | 4800 |  | 5.06 |  |  | 196 | 0.911 |  | 30.8 |  | 16.8 |  |  | 
